Measurements taken from US8409595B2, “Method for decreasing sebum production” (Medicis Pharmaceutical Corporation, priority 2003, dated 2013).

Test system: sebaceous glands of Syrian hamster ears
Test: Syrian hamster ear model of sebum secretion, HPLC of cholesterol ester and wax ester
Type: in vivo
Conditions: topical 1 w/v %, 4 weeks; for % Reduction in CE, change vs. relevant vehicle control: cholesterol ester; for % Reduction in CE, change vs. relevant vehicle control / % Reduction in WE, change vs. relevant vehicle control: twice daily, five days a week, right ear, negative = increase; for Sum CE + WE, change vs. relevant vehicle control: summation of % reduction in CE and in WE; for effect on CE and WE (sebum) secretion, in words: compared to the control; for % Reduction in WE, change vs. relevant vehicle control: wax ester
Protocol: Luderschmidt et al describes an animal model for testing whether compounds are capable of modulating sebum secretion. Arch. Derm. Res. 258, 185-191 (1977). This model uses Syrian hamsters, whose ears contain sebaceous glands. Compounds can be administered to these animals to determine if a test agent is capable of modulating sebum production
Testing for sebum inhibition was carried out in the following manner. Male Syrian hamsters aged 9 to 10 weeks were introduced into the laboratory environment and acclimated for 2 weeks prior to use in the study. Each group consisted of 5 animals and were run in parallel with vehicle and positive controls. Prior to administration, 10 mg of each compound was dissolved in 1 mL of Universal solvent (ethanol/propylene glycol (70/30% v/v) to achieve a final concentration of 1 w/v %.
Animals were dosed topically twice daily, five days a week, for 4 weeks. Each dose consisted of 25 micro liters of vehicle control or drug. The dose was applied to the ventral surfaces of both the right and left ears. All animals were sacrificed approximately 18-24 hours after the final dose. The right ears were collected from each animal and used for sebum analysis.
The ears were prepped for HPLC analysis in the following manner. One 8 mm distal biopsy punch was taken, just above the anatomical “V” mark in the ear to normalize the sample area. The punch was pulled apart. The ventral biopsy surface (the area where the topical dose was directly applied to the sebaceous glands) was retained for testing and the dorsal surface of the biopsy punch was discarded.
Tissue samples were blown with N2 gas and stored at −80° C. under nitrogen until HPLC analysis. In addition to ear samples, an aliquot of each drug and vehicle (at least 250 ul) was also stored at −80° C. for inclusion in the HPLC analysis.
HPLC analysis was carried out on an extract of the tissue sample. Tissue samples were contacted with 3 ml of solvent (a 4:1 admixture of 2,2,4-trimethylpentane and isopropyl alcohol). The mixture was shaken for 15 minutes and stored overnight at room temperature, protected from light. The next morning 1 milliliter of water was added to the sample and shaken for 15 minutes. The sample was then centrifuged at approximately 1500 rpm for 15 minutes. Two ml of the organic phase (top layer) was transferred to a glass vial, dried at 37° C., under nitrogen, for approximately 1 hour, and then lyophilized for approximately 48 hours. The samples were then removed from the lyophilizer and each vial was reconstituted with 600 μl of solvent A (trimethylpentane/tetrahydrofuran (99:1). The samples were then recapped and vortexed for 5 minutes.
200 μl of each sample was then transferred to a pre-labeled 200 μl HPLC vial with 200 μL glass inserts. The HPLC vials were placed in the autosampler tray for the Agilent 1100 series HPLC unit. The Agilent 1100 HPLC system consisted of a thermostated autosampler, a quarternary pump, a column heater, and an A/D interface module. All components were controlled by Agilent ChemStation software. A Waters Spherisorb S3W 4.6×100 mm analytical column was maintained at 30° C. by the Agilent column heater unit. The HPLC autosampler was programmed to maintain the sample temperature at 20° C. throughout the run.
10 uL of each sample was injected in triplicate into the column. Two solvents were used for the solvent gradient. Solvent A was an admixture of trimethylpentane and tetrahydrofuran (99:1). Solvent B was ethylacetate. The gradient utilized is described in the table below: […]
The Sedex 75 Evaporative Light Scattering Detector (ELSD) was operated at 45° C. with a gain of 5, and N2 pressure maintained at 3.1 bar. Analog signal obtained by the instrument was sent to the Agilent A/D interface module where it was converted to a digital output. The conversion was based on a 10000 mAU/volt set point and the data rate was set at 10 Hz (0.03 min). […]

Row | SMILES | % Reduction in CE, change vs. relevant vehicle control [%] | Sum CE + WE, change vs. relevant vehicle control [%] | effect on CE and WE (sebum) secretion, in words | % Reduction in WE, change vs. relevant vehicle control [%]
1 | CSc1ccc(CN(C(=O)CC(=O)Nc2c(C(C)C)cccc2C(C)C)C(C)C)cc1 [Compound 2] | 65 | 96 | comparable results | 31
2 | COc1ccc(CN(C(=O)CC(=O)Nc2c(C(C)C)cccc2C(C)C)c2ccccn2)cc1 [Compound 3] | 51 | 84 | comparable results | 33
3 | CC(C)c1cccc(C(C)C)c1NC(=O)CC(=O)N(CCN(C)C)Cc1ccccc1 [Compound 4] | −1 | −19 |  | −18
4 | COc1ccc(CN(C(=O)CC(=O)Nc2c(C(C)C)cccc2C(C)C)c2ncccn2)cc1 [Compound 5] | 32 | 28 |  | −4
5 | CC(C)c1cccc(C(C)C)c1NC(=O)CC(=O)N(CCC#N)Cc1ccccc1 [Compound 6] | 23 | 22 |  | −1
6 | CCOC(=O)CN(C(=O)CC(=O)Nc1c(C(C)C)cccc1C(C)C)c1ccccc1 [Compound 7] | −67 | −151 |  | −84
7 | CC(C)c1cccc(C(C)C)c1NC(=O)CC(=O)N(c1ccccc1)C(C)C [Compound 8] | −27 | −97 |  | −70
8 | CC(C)c1cccc(C(C)C)c1NC(=O)CC(=O)CC(c1ccccc1)c1ccccc1 [Compound 9] | 7 | 9 |  | 2
9 | CCCCCCCCCCCCn1nnc(C(C(=O)Nc2c(C(C)C)cccc2C(C)C)c2ccccc2)n1 (centres unmarked) [Compound 10] | −105 | −252 |  | −147
10 | CCCCCCCCCCCCn1nnc(C(C(=O)Nc2c(OC)cc(OC)cc2OC)c2ccccc2)n1 (centres unmarked) [Compound 11] | −5 | −11 |  | −6
11 | CCCCCCCCCCCCOP(=O)(CC(=O)Nc1c(C(C)C)cccc1C(C)C)c1ccccc1 (centres unmarked) [Compound 12] | 48 | 92 |  | 44
12 | CC(C)c1cccc(C(C)C)c1NC(=O)NCC1(c2ccccc2)CCOCC1 [Compound 13] | −7 | −14 |  | −7
13 | CCCCCCCCCCCCCC(=O)CC(=O)Nc1c(C(C)C)cccc1C(C)C [Compound 14] | −8 | −23 |  | −15
14 | CCCCCCCC1CCC(C(=O)Nc2c(C(C)C)cccc2C(C)C)C(=O)O1 (centres unmarked) [Compound 15] | 24 | 38 |  | 14
15 | CC(C)c1cccc(C(C)C)c1NC(=O)NCC1(c2ccc(CO)cc2)CCCC1 [Compound 16] | −1 | −1 |  | 0
16 | CC(C)c1cccc(C(C)C)c1NC(=O)NCC1(c2ccccn2)CCCC1 [Compound 17] | −56 | −120 |  | −64
17 | CCCCCCCCCCCCn1nnc(CC(=O)Nc2c(C)nn(C)c2C)n1 [Compound 18] | −23 | −72 |  | −49
18 | CCCCCCCCCCCCn1nnc(CNC(=O)Nc2c(C(C)C)cccc2C(C)C)n1 [Compound 19] | −6 | −5 |  | 1
19 | CC(C)c1cccc(C(C)C)c1NC(=O)NCC1(c2ccco2)CCC1 [Compound 20] | 4 | 3 |  | −1
20 | COc1ccccc1CN[C@@H](CNC(=O)Nc1c(C(C)C)cccc1C(C)C)c1ccccc1 [Compound 21] | 4 | 7 |  | 3
21 | CCCCCCCN(CCCCCSc1nc(-c2ccccc2)c(-c2ccccc2)[nH]1)C(=O)Nc1ccc(F)cc1F [Compound 22] | 20 | 24 |  | 4
22 | CC(C)c1cccc(C(C)C)c1NC(=O)NCC1(c2cccc(CN(CCO)CCO)c2)CCCC1 [Compound 23] | 4 | −80 |  | −84
23 | CC(C)c1cccc(C(C)C)c1NC(=O)NCC1(c2cccc(CN3CCOCC3)c2)CCCC1 [Compound 24] | 20 | 21 |  | 1
24 | COc1cc(OC)cc(C(NCC(=O)Nc2c(C(C)C)cccc2C(C)C)c2ccccc2)c1 (centres unmarked) [Compound 25] | 10 | 7 |  | −3
25 | CC(C)c1cccc(C(C)C)c1NC(=O)Nc1nnn(CCCCCCCCCCCO)n1 [Compound 26] | 28 | 37 |  | 9
26 | CC(C)c1cccc(C(C)C)c1NC(=O)NCC(C)c1ccccc1 (centres unmarked) [Compound 27] | −17 | −40 |  | −23
